Source: patent publication US11000515B2, “Compounds that interact with the Ras superfamily for the treatment of cancers, inflammatory diseases, rasopathies, and fibrotic disease” (Shy Therapeutics LLC, priority 2017, dated 2021)
Like-named read-outs stand apart in the source and are kept apart here.

Tests used:
[1] = test system: TNFα production in RAW 264.7 macrophage cell line; experiment: Mouse TNF alpha quantification assay (LPS-stimulated RAW 264.7, ELISA); assay type: cell-based; details: RAW264.7, LPS-stimulated RAW 264.7 macrophage cell line, read-out: TNF-α % Inhibition at 30 μM
[2] = test system: IL6 production in RAW 264.7 macrophage cell line; experiment: Mouse IL6 quantification assay (LPS-stimulated RAW 264.7, ELISA); assay type: cell-based; details: RAW264.7, LPS-stimulated RAW 264.7 macrophage cell line, read-out: IL-6 % Inhibition at 30 μM
[3] = biological target: KRas G12D/Q61H double mutant (Homo sapiens (Human), UniProt P01116, G12D/Q61H); experiment: Ras GTP binding domain inhibition assay (labeled GTP)
KRas G12D/Q61H double mutant, sequence (P01116-2 other isoform, or with tags, fused parts or gaps G12D/Q61H): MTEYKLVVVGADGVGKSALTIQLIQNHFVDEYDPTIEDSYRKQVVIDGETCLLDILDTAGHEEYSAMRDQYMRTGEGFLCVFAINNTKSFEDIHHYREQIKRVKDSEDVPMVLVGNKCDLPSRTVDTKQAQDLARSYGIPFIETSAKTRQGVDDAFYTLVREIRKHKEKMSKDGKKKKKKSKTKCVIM
Experimental: (§1) Buffer-I: • 50 mM Tris, pH 7.5 • 150 mM NaCl (optional) • 1 mM MgCl2 • 1 mM DTT. • KRas G12D mutant protein was expressed as a His-tagged protein. Purified His-KRas G12D protein was diluted in buffer-I to a final concentration of 3-10 μg/ml. • 200 μl of the diluted His-KRas G12D protein was added to a nickel coated 96 well plate and incubated overnight at 4° C. • The next day, wells were washed 3× in 200 μl of Buffer-I. • Then 200 μl of Buffer-I were added to each well in the presence of 1% DMSO. • Tested compounds were added to the protein-coated wells at a concentration of 20 μM, and incubated for 3 hours at room temperature. While performing IC50 measurements a serial dilution of all tested concentrations was prepared.
(§2) Then 22 μl of Cy3-GTP or Cy5-GTP was added to each well. The labeled GTP was incubated for 45 min. at room temperature. • Following GTP incubation, wells were washed 3× in Buffer-I, and 200 μl of Buffer-I were added to each well. • Following washes, the amount of bound labeled-GTP was measured with an Eppendorf AF2200 plate reader.
(§3) By substituting KRas G12D mutant protein with KRas G12C mutant, KRas wild type, KRas Q61H mutant, KRas G12D/Q61H double mutant or KRas G12C/Q61H double mutant under the assay conditions described above, KRas G12C mutant KRas wild type, KRas Q61H mutant, KRas G12D/Q61H double mutant and KRas G12C/Q61H double mutant inhibition, respectively, were each determined.

KRas G12D mutant protein = KRas G12D mutant protein (Homo sapiens (Human), UniProt P01116, G12D); experiment: as above; details: compound at 20 μM
KRas G12D mutant protein, sequence (P01116-2 other isoform, or with tags, fused parts or gaps G12D): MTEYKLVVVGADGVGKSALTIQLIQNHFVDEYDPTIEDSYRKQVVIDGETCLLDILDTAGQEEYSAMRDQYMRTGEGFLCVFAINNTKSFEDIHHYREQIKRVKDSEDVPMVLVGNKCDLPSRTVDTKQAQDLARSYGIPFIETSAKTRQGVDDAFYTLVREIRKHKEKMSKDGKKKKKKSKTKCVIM
Experimental: The following method was developed as specific assay for KRas G12D mutant protein.
as §1, §2

KRas G12C mutant = KRas G12C mutant (Homo sapiens (Human), UniProt P01116, G12C); experiment: as above; details: compound at 20 μM
KRas G12C mutant, sequence (P01116-2 other isoform, or with tags, fused parts or gaps G12C): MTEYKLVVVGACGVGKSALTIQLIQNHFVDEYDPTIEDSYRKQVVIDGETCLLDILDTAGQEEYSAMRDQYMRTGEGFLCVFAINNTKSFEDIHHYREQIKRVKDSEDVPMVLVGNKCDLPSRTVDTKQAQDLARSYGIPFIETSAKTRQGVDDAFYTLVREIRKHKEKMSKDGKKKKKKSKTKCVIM
Experimental: as §1, §2, §3

KRas wild type = KRas wild type (Homo sapiens (Human), UniProt P01116); experiment: as above; details: compound at 20 μM
KRas wild type, sequence (P01116-2 other isoform, or with tags, fused parts or gaps): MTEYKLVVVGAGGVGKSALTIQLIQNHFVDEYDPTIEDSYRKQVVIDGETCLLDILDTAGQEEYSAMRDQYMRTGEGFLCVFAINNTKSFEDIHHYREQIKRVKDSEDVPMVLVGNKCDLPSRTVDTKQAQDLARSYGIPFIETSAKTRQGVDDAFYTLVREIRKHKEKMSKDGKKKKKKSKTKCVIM
Experimental: as §1, §2, §3

[4] = biological target: KRas G12C/Q61H double mutant (Homo sapiens (Human), UniProt P01116, G12C/Q61H); experiment: as above; details: compound at 20 μM
KRas G12C/Q61H double mutant, sequence (P01116-2 other isoform, or with tags, fused parts or gaps G12C/Q61H): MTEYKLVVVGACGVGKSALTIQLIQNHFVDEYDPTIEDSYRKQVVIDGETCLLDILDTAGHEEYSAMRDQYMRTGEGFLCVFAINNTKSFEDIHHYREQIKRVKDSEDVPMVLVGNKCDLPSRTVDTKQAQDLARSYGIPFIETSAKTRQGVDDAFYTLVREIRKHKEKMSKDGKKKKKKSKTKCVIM
Experimental: as §1, §2, §3

KRas Q61H mutant = KRas Q61H mutant (Homo sapiens (Human), UniProt P01116, Q61H); experiment: as above; details: compound at 20 μM
KRas Q61H mutant, sequence (P01116-2 other isoform, or with tags, fused parts or gaps Q61H): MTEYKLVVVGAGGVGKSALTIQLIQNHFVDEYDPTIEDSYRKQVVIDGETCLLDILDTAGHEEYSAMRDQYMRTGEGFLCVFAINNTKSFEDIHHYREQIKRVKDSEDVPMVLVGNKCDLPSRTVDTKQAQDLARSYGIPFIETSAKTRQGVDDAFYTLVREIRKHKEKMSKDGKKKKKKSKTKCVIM
Experimental: as §1, §2, §3

[5] = 20 μM, read-out: KRas G12D Q61H % Inh.
[6] = compound at 20 μM, read-out: % Inhibition at 20 μM, KRas G12D Q61H

Row | Compound | inhibition at 30 µM [1] [%] | inhibition at 30 µM [2] [%] | other results
1 | O=C(CCc1cnn(-c2ccccc2)c1)Nc1nnc(-c2ccccn2)[nH]1 | 1 to 25 | 26 to 50 | 
2 | CC(C)C(=O)Nc1nc(CC(=O)Nc2nnc(-c3ccccc3)[nH]2)cs1 | 1 to 25 | 0 | 
3 | O=C(Nc1nnc(-c2ccccn2)s1)c1csc(-c2ccco2)n1 | 0 | 51 to 75 | 
4 | O=C(Nc1nc(-c2ccccn2)cs1)c1cccc(F)c1 | 0 | 1 to 25 | 
5 | COc1cccc(C(=O)Nc2nc(-c3ccccn3)cs2)c1 | 0 | 1 to 25 | 
6 | COc1ccc(C(=O)Nc2nc(-c3ccccn3)cs2)cn1 | 51 to 75 | 76 to 100 | 
7 | O=C(c1csc2c(O)nc(-c3ccccn3)nc12)N1CCN(c2ccccc2)CC1 | 51 to 75 | 76 to 100 | 
8 | Brc1csc2nc(-c3ccccn3)nc(Br)c12 | 76 to 100 | 76 to 100 | 
9 | COc1cc(CNc2nc(-c3ccccn3)nc3scc(-c4ccccc4)c23)ccc1OCC(N)=O | 76 to 100 | 76 to 100 | 
10 | CN(CC(=O)N1CCOCC1)c1nc(-c2ccccn2)nc2scc(-c3ccccc3)c12 | 1 to 25 | 1 to 25 | 
11 | COc1cc(CCNC(=O)c2csc3nc(-c4ccccn4)nc(N4CCOCC4)c23)ccn1 | 0 | 1 to 25 | 
12 | CC(C)(C(=O)Nc1cc(-c2ccccn2)nc2sccc12)c1ccc(C#N)cc1 | 1 to 25 | 76 to 100 | 
13 | O=C(c1csc2c(O)nc(-c3ccccn3)nc12)N1CCNC(Cc2cccc(F)c2)C1 (centres unmarked) | 1 to 25 | 26 to 50 | 
14 | O=C(NCCc1cnc(O)cn1)c1csc2nc(-c3ccccn3)nc(N3CCS(=O)(=O)CC3)c12 | 0 | 51 to 75 | 
15 | CC(C)COc1ccc(-c2csc3c(O)nc(-c4ccccn4)nc23)nc1 | 51 to 75 | 76 to 100 | 
16 | Nc1nc(-c2ccccn2)nc2scc(Br)c12 | 0 | 1 to 25 | 
17 | Nc1nc(-c2ccccn2)nc2c(-c3ccccn3)csc12 | 76 to 100 | 76 to 100 | 
18 | CN(C)Cc1cc(F)cc(-c2csc3c(O)nc(-c4ccccn4)nc23)c1 | 51 to 75 | 76 to 100 | 
19 | COCCNc1nc(-c2cccc(C)n2)nc2sc(-c3ccccc3)c(-c3ccccc3)c12 | 26 to 50 | 26 to 50 | 
20 | CC(C)COc1ccc(-c2csc3c(O)nc(-c4nccn4C)nc23)cn1 | 76 to 100 | 76 to 100 | 
21 | CC(C)c1ccc(NC(=O)CCc2c(O)cc(-c3ccccn3)nc2O)cc1 |  |  | inhibition at 20 µM [3, 5]: 51 to 75%
22 | CCN(CC)S(=O)(=O)c1cc(C)c(C)c(NC(=O)CCc2c(C)cc(-c3ccccn3)nc2O)c1 |  |  | inhibition at 20 µM [3, 5]: 51 to 75%
23 | CS(=O)(=O)CCCC(=O)N1CCCc2c(O)nc(-c3ccccn3)nc21 |  |  | KRas G12D Q61H % Inh. ([3]; 20 μM): C (C = 51-75% inhibition)
24 | O=C(CCCc1cccnc1)N1CCCc2c(O)nc(-c3ccccn3)nc21 |  |  | inhibition at 20 µM (KRas G12D mutant protein): 51 to 75%; inhibition at 20 µM (KRas G12C mutant): 51 to 75%; inhibition at 20 µM [3, 6]: 51 to 75%; inhibition at 20 µM (KRas wild type): 25 to 50%
25 | O=C(c1csc2c(O)nc(-c3ccccn3)nc12)N1CCN(c2cccnc2)CC1 |  |  | inhibition at 20 µM (KRas G12D mutant protein): 51 to 75%; inhibition at 20 µM (KRas G12C mutant): 25 to 50%; inhibition at 20 µM [3, 6]: 51 to 75%; inhibition at 20 µM (KRas wild type): 76 to 100%
26 | COc1ccc(CCOC(=O)Nc2ccnc(-c3ccccn3)n2)cn1 |  |  | inhibition at 20 µM [3, 6]: 25 to 50%
27 | O=C(NCCc1cncs1)c1csc2nc(-c3ccccn3)nc(N3CCOCC3)c12 |  |  | inhibition at 20 µM [4]: 1 to 25%
28 | Oc1nc(-c2ccccn2)nc2ccsc12 |  |  | inhibition at 20 µM (KRas G12D mutant protein): 1 to 25%; inhibition at 20 µM (KRas G12C mutant): 25 to 50%; inhibition at 20 µM [4]: 25 to 50%; inhibition at 20 µM [3, 6]: 25 to 50%; inhibition at 20 µM (KRas Q61H mutant): 51 to 75%; inhibition at 20 µM (KRas wild type): 1 to 25%
29 | Cc1cc2nc(-c3ccccn3)nc(O)c2s1 |  |  | inhibition at 20 µM (KRas G12C mutant): 1 to 25%; inhibition at 20 µM (KRas wild type): 25 to 50%
30 | Oc1nc(-c2ccccn2)nc2c(-c3ccccc3)csc12 |  |  | inhibition at 20 µM (KRas G12C mutant): 1 to 25%
